These compounds were tested against T1, APOL1 (Homo sapiens, UniProt O14791) (assay: MultiTox-Fluor Multiplex Cytotoxicity Assay in tet-inducible APOL1 T-REx-HEK293 cells (cell rescue, ratio of dead to live cells)). Settings: tet-inducible transgenic APOL1 T-REx-HEK293 cell lines, 50 ng/mL tet, 24 hours; read-out: IP50 (i.e., IC50 for cell proliferation).
T1 sequence (O14791 1-398 S342G/I384M): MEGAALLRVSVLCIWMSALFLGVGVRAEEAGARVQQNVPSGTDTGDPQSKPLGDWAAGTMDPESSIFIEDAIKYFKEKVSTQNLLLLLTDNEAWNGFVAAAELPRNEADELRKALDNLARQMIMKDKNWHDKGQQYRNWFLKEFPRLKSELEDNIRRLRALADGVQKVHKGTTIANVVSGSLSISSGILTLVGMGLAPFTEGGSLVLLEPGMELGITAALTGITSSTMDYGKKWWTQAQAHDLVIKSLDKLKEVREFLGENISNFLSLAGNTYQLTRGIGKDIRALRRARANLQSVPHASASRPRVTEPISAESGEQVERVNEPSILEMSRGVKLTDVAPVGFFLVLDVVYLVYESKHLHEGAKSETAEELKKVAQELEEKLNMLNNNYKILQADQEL
Assay type: cell-based
Procedure, shortened: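 T-REx-HEK293 cells with tet-inducible APOL1 were treated with compound (10 μM top, 10-point 3-fold dilution, duplicate) plus 50 ng/mL tetracycline for 24 h at 37° C, in DMEM with 2% tet-free FBS. MultiTox-Fluor protease signals gave a dead/live ratio, normalized to no tet (100% viability) and tet alone (0%).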

Structure (SMILES)	IC50
C[C@H]1C[C@@]2(CCN1C[C@@H](O)C(N)=O)OCCc1sc(Cl)cc12 [Compound 509, (2R)-3-[(2′S,4R)-2-chloro-2′-methyl-spiro[6,7-dihydrothieno[3,2-c]pyran-4,4′-piperidine]-1′-yl]-2-hydroxy-propanamide]	100 to 500 nM
CNC(=O)[C@@H](O)CN1CC[C@]2(C[C@@H]1C)OCCc1cc(CC(F)F)sc12 [Compound 612, (2S)-3-[(2′S, 7R)-2-(2,2-difluoroethyl)-2′-methyl-spiro[4,5-dihydrothieno[2,3-c]pyran-7,4′-piperidine]-1′-yl]-2-hydroxy-N-methyl-propanamide]	100 to 500 nM
CCc1cc2c(s1)CCO[C@@]21CCN(Cc2cn(CCS(C)(=O)=O)nn2)[C@@H](C)C1 [Compound 11, (2′S,4R)-2-ethyl-2′-methyl-1′-[[1-(2-methylsulfonylethyl)triazol-4-yl]methyl]spiro[6,7-dihydrothieno[3,2-c]pyran-4,4′-piperidine]]	< 100 nM
CCc1cc2c(s1)CCOC21CCN(Cc2cn(CC(=O)NCCO)nn2)CC1 [Compound 1095]	500 to 1000 nM
C[C@H]1C[C@@]2(CCN1CCO)OCCc1cc(CC(F)F)sc12 [Compound 599]	100 to 500 nM
C[C@H]1C[C@@]2(CCN1Cc1cc[nH]n1)OCCc1cc(CC(F)F)sc12 [Compound 562]	< 100 nM
C[C@H]1C[C@@]2(CCN1CC1CCCO1)OCCc1cc(CC(F)F)sc12 (stereo partly shown) [Compound 586]	500 to 1000 nM
C[C@H]1CC2(CCN1Cc1cnn(C)c1)OC1CCCCC1c1cc(Cl)sc12 (stereo partly drawn) [Compound 1021, (2S)-2′-chloro-2-methyl-1-((1-methyl-1H-pyrazol-4-yl)methyl)-5a′,6′,7′,8′,9′,9a′-hexahydrospiro[piperidine-4,4′-thieno[2,3-c]chromene]]	100 to 500 nM
C[C@H]1C[C@]2(CCN1Cc1cn(CCS(C)(=O)=O)nn1)OCCc1cc(Cl)sc12 [Compound 695, (2′S,7S)-2-chloro-2′-methyl-1′-[[1-(2-methylsulfonylethyl)triazol-4-yl]methyl]spiro[4,5-dihydrothieno[2,3-c]pyran-7,4′-piperidine]]	500 to 1000 nM
C[C@H]1C[C@@]2(CCN1Cc1cnn(CC(O)C3CCCO3)c1)OCCc1c2sc(C(F)(F)F)c1CO (stereo partly shown) [Compound 964]	< 100 nM
CCc1cc2c(s1)CCO[C@@]21CCN(CC(O)CC#N)[C@@H](C)C1 (stereo partly shown) [Compound 280]	100 to 500 nM
C[C@H]1C[C@@]2(CCN1Cc1cnn(CC(=O)N(C)C)c1)OC[C@@H](O)c1cc(C(F)(F)F)sc12 [Compound 886]	< 100 nM
C[C@H]1C[C@@]2(CCN1Cc1cnn(C[C@H](O)C(=O)N(C)C)c1)OC[C@@H](O)c1cc(C(F)(F)F)sc12 [Compound 998]	< 100 nM
C[C@H]1C[C@@]2(CCN1Cc1cn[nH]c1)OCC(O)c1cc(Cl)sc12 (stereo partly shown) [Compound 817]	< 100 nM
C[C@H]1C[C@@]2(CCN1Cc1cnn(C)c1)OCC(O)c1cc(Cl)sc12 (single isomer, unassigned) [Compound 819]	< 100 nM
CCc1cc2c(s1)CCOC21CCN(Cc2ccc(C(=O)N[C@H]3CC[C@H](O)CC3)nc2)CC1 [Compound 1043, 5-((2′-ethyl-6′,7′-dihydrospiro[piperidine-4,4′-thieno[3,2-c]pyran]-1-yl)methyl)-N-((1r,4r)-4-hydroxycyclohexyl)picolinamide]	< 100 nM
CCc1cc2c(s1)CCOC21CCN(Cc2cn(C(C)c3nnc(C)o3)nn2)CC1 (stereo not shown) [Compound 1101]	500 to 1000 nM
CCc1cc2c(s1)CCO[C@@]21CCN(CC(O)CC(F)(F)F)[C@@H](C)C1 (stereo partly shown) [Compound 238]	100 to 500 nM
CCc1cc2c(s1)CCO[C@@]21CCN(CC2CN(C(=O)CO)C2)[C@@H](C)C1 [Compound 452]	100 to 500 nM
CCc1cc2c(s1)CCO[C@@]21CCN(C[C@H]2C[C@H](NC(=O)OC(C)(C)C)C2)[C@@H](C)C1 [Compound 418, tert-butyl N-[3-[[(2′S,4R)-2-ethyl-2′-methyl-spiro[6,7-dihydrothieno[3,2-c]pyran-4,4′-piperidine]-1′-yl]methyl]cyclobutyl]carbamate]	100 to 500 nM
CCc1cc2c(s1)CCOC21CCN(Cc2nc(-c3ccccc3)[nH]c2Cl)CC1 [Compound 1145]	500 to 1000 nM
COCc1c(Cl)sc2c1CCO[C@@]21CCN(Cc2cnn(CCS(C)(=O)=O)c2)[C@@H](C)C1 [Compound 762, (2′S, 7R)-2-chloro-3-(methoxymethyl)-2′-methyl-1′-[[1-(2-methylsulfonylethyl)pyrazol-4-yl]methyl]spiro[4,5-dihydrothieno[2,3-c]pyran-7,4′-piperidine]]	< 100 nM
CCCNC(=O)c1c(C(F)(F)F)sc2c1CCO[C@@]21CCN(Cc2cn(CCS(C)(=O)=O)nn2)[C@@H](C)C1 [Compound 1007, (2′S,7R)-2′-methyl-1′-[[1-(2-methylsulfonylethyl)triazol-4-yl]methyl]-N-propyl-2-(trifluoromethyl)spiro[4,5-dihydrothieno[2,3-c]pyran-7,4′-piperidine]-3-carboxamide]	500 to 1000 nM
Cc1cc2c(s1)[C@]1(CCN(Cc3cnn(CCS(C)(=O)=O)c3)[C@@H](C)C1)OCC2(O)C(F)F (stereo partly drawn) [Compound 1031, (2′S, 7R)-4-(difluoromethyl)-2,2′-dimethyl-1′-[[1-(2-methylsulfonylethyl)pyrazol-4-yl]methyl]spiro[5H-thieno[2,3-c]pyran-7,4′-piperidine]-4-ol]	< 100 nM
CCc1cc2c(s1)CCO[C@@]21CCN(Cc2cn(C[C@H](O)C(C)(C)C)nn2)[C@@H](C)C1 [Compound 113]	< 100 nM

Structure (SMILES)	IC50
C[C@H]1C[C@@]2(CCN1Cc1cnn(CC(O)C3(O)CCOCC3)c1)OC[C@@H](O)c1cc(C(F)(F)F)sc12 (stereo partly shown) [Compound 978]	< 100 nM
CCc1cc2c(s1)CCO[C@]21CCN(Cc2cnn(C)c2)[C@H](C)C1 [Compound 270]	100 to 500 nM
C[C@H]1C[C@@]2(CCN1Cc1cnn(CCS(C)(=O)=O)c1)OCCc1cc(C3CCC3)sc12 [Compound 1033, (2′S,7R)-2-cyclobutyl-2′-methyl-1′-[[1-(2-methylsulfonylethyl)pyrazol-4-yl]methyl]spiro[4,5-dihydrothieno[2,3-c]pyran-7,4′-piperidine]]	< 100 nM
CCc1cc2c(s1)CCOC21CCN(Cc2cn(CCN3CCC(O)C3)nn2)CC1 (stereo not shown) [Compound 1104]	500 to 1000 nM
CCc1cc2c(s1)CCO[C@@]21CCN(Cc2cn(CC3CN(C)C(=O)CO3)nn2)[C@@H](C)C1 (stereo partly shown) [Compound 174]	100 to 500 nM
CCc1cc2c(s1)CCO[C@@]21CCN(C[C@H]2C[C@@H](NC(=O)c3ccc4[nH]nnc4c3)C2)[C@@H](C)C1 [Compound 358]	< 100 nM
C[C@H]1C[C@@]2(CCN1CCC1CCOCC1)OC[C@H](O)c1cc(Cl)sc12 [Compound 779]	500 to 1000 nM
CCc1cc2c(s1)CCO[C@@]21CCN(C[C@H]2C[C@@H](NC(=O)c3cc(C)[nH]n3)C2)[C@@H](C)C1 [Compound 326]	< 100 nM
C[C@H]1C[C@@]2(CCN1Cc1cnn(CC(O)c3ccccn3)c1)OCCc1c2sc(C(F)(F)F)c1CO (stereo partly shown) [Compound 939]	< 100 nM
CCc1cc2c(s1)CCOC21CCN(Cc2cn(CCS(=O)(=O)CC)nn2)CC1 [Compound 1089]	500 to 1000 nM
CCc1cc2c(s1)CCO[C@@]21CCN(Cc2cnc(N[C@@H]3C(=O)NC[C@H]3O)nc2)[C@@H](C)C1 [Compound 220]	< 100 nM
Cc1cnc(Cn2cc(CN3CC[C@]4(C[C@@H]3C)OCCc3c4sc(C(F)(F)F)c3CO)cn2)cn1 [Compound 912]	< 100 nM
CCc1cc2c(s1)CCO[C@@]21CCN(Cc2cn(CC(=O)NC3CC3)nn2)[C@@H](C)C1 [Compound 59]	< 100 nM
C[C@H]1C[C@@]2(CCN1Cc1cnn(CCS(C)(=O)=O)c1)OCC(O)c1cc(Cl)sc12 (single isomer, unassigned) [Compound 768]	< 100 nM
C[C@H]1C[C@@]2(CCN1Cc1ccccc1F)OCCc1c2sc(Cl)c1CO [Compound 713]	100 to 500 nM
Cc1ncccc1CN1CC[C@]2(C[C@@H]1C)OC[C@H](O)c1cc(Cl)sc12 [Compound 770]	100 to 500 nM
CCc1cc2c(s1)CCO[C@@]21CCN(Cc2cn(CC(O)c3c(C)nn(C)c3C)nn2)[C@@H](C)C1 (stereo partly shown) [Compound 189]	< 100 nM
CCc1cc2c(s1)CCO[C@@]21CCN(Cc2cnc(N[C@H]3COC[C@@H]3O)nc2)[C@@H](C)C1 [Compound 203]	< 100 nM
CCc1cc2c(s1)CCO[C@@]21CCN(C[C@H]2C[C@@H](NS(=O)(=O)c3ccccc3F)C2)[C@@H](C)C1 [Compound 408]	< 100 nM
CCc1cc2c(s1)CCO[C@@]21CCN(Cc2cn(CC(O)(CO)CO)nn2)[C@@H](C)C1 [Compound 89]	< 100 nM
C[C@H]1C[C@@]2(CCN1Cc1cnn(C)c1)OCC(O)(c1ccccc1)c1cc(Cl)sc12 (stereo partly drawn) [Compound 850, (2′S,7R)-2-chloro-2′-methyl-1′-[(1-methylpyrazol-4-yl)methyl]-4-phenyl-spiro[5H-thieno[2,3-c]pyran-7,4′-piperidine]-4-ol]	100 to 500 nM
C[C@H]1C[C@@]2(CCN1Cc1cnn(CC(O)c3ccc(F)cn3)c1)OCCc1c2sc(C(F)(F)F)c1CO (stereo partly shown) [Compound 937]	< 100 nM
CCc1nnc(Cn2cc(CN3CCC4(CC3)OCCc3sc(CC)cc34)nn2)o1 [Compound 1087]	500 to 1000 nM
C[C@H]1C[C@@]2(CCN1Cc1cnn(CC3CC4(CCOCC4)C(=O)O3)c1)OCCc1c2sc(C(F)(F)F)c1CO (stereo partly shown) [Compound 984]	< 100 nM

Source: patent US20250171459A1, “2-METHYL-4',5'-DIHYDROSPIRO[PIPERIDINE-4,7'-THIENO[2,3-C]PYRAN] DERIVATIVES AS INHIBITORS OF APOL1 AND METHODS OF USING SAME” (Vertex Pharmaceuticals Incorporated, priority 2022, published 2025)
